Laboratory results from patent US7022719B2, “Preventing and reversing the formation of advance glycosylation endproducts” (Alteon, Inc., priority 1995, dated 2006).

How the values were obtained:
[1] = tested on: aortic wall protein cross-linking; conditions: diabetic rats; cited from earlier work
[2] = tested on: immunoglobulin trapping in the kidney; conditions: in vivo; cited from earlier work
[3] = tested on: glomerular basement membrane thickness; conditions: streptozotocin-diabetic rat model; cited from earlier work
[4] = tested on: red blood cells; conditions: in vivo; cited from earlier work
[5] = tested on: AGE-BSA crosslinked to collagen; assay: Cross-link Breaking Assay (sandwich enzyme immunoassay); format: biochemical; conditions: at 10 mM
Experimental: The present invention also involves a novel sandwich enzyme immunoassay used to ascertain the ability of test compounds to “break” or reverse already formed advanced glycosylation endproducts by detecting the breaking of AGE (Advanced glycosylation endproduct) moieties from AGE-crosslinked protein. This assay comprises: • a) incubation of AGE-modified bovine serum albumin (AGE BSA) on collagen-coated wells of microtiter plates for a period of 2–6 hours' at a temperature of 37° C.; • b) washing of the wells with PBS-Tween; • c) application of the test compounds to the washed wells of step b; • d) incubation of the test compounds applied to the washed wells for an additional 12–24 hours at a temperature of about 37° C.; and • e) detection of the AGE-breaking using an antibody raised against AGE-ribonuclease or cross-link breaking with an antibody against BSA.
In order to ascertain the ability of the compounds of the instant invention to “break” or reverse already formed advanced glycosylation endproducts, a novel sandwich enzyme immunoassay was developed which detects breaking of AGE (Advanced glycosylation endproduct) moieties from AGE-crosslinked protein. The assay utilizes collagen-coated 96 well microtiter plates that are obtained commercially. […] Following an incubation period of 16 hours (37° C.) cross-link-breaking is detected using an antibody raised against AGE-ribonuclease or with an antibody against BSA. […] Details of the assay are as follows:
Methods Preparation of Solutions and Buffers • 1. AGE-BSA stock solutions were prepared as follows. Sodium phosphate buffer (0.4 M) was prepared by dissolving 6 grams of monobasic sodium phosphate in 100 ml of distilled water, 7 grams of dibasic sodium phosphate (0.4 M) in 100 ml of distilled water and adjusting the pH of the dibasic solution to 7.4 with the monobasic solution. Sodium azide (0.02 grams) was added per 100 ml volume to inhibit bacterial growth. The BSA solution was prepared as follows: 400 mg of Type V BSA (bovine serum albumin) was added for each ml of sodium phosphate buffer (above). A 400 mM glucose solution was prepared by dissolving 7.2 grams of dextrose in 100 ml of sodium phosphate buffer (above). The BSA and glucose solutions were mixed 1:1 and incubated at 37° C. for 12 weeks. The pH of the incubation mixture was monitored weekly and adjusted to pH 7.4 if necessary. After 12 weeks, the AGE-BSA solution was dialyzed against PBS for 48 hours with four buffer changes, each at a 1:500 ratio of solution to dialysis buffer. Protein concentration was determined by the micro-Lowry method. The AGE-BSA stock solution was aliquoted and stored at −20° C. […] Working solutions for crosslinking and breaking studies were prepared as follows. Test compounds were dissolved in PBS and the pH was adjusted to pH 7.4 if necessary. AGE-BSA stock solution was diluted in PBS to measure maximum crosslinking and in the inhibitor solution for testing inhibitory activity of compounds. The concentration of AGE-BSA necessary to achieve the optimum sensitivity was determined by initial titration of each lot of AGE-BSA. • 3. Wash buffer (“PBS-Tween”) was, prepared as follows. PBS was prepared by dissolving the following salts in one liter of distilled water: NaCl, 8 grams; KC1, 0.2 gram, KH2PO4. […] Tween-20 was added to a final concentration of 0.05% (vol/vol). • 4. Substrates for detection of secondary antibody binding were prepared by diluting the HRP substrate buffer 1:10 in distilled water and mixing with ABTS chromogen 1:50 just prior to use. Assay Procedures • 1. Biocoat plates were blocked with 300 μl of “Superbloc”. Plates were blocked for one hour at room temperature and were washed with PBS-Tween three times with the Dynatech platewasher before addition of test reagents. • 2. Each experiment was set up in the following manner. The first three wells of the Biocoat plate were used for the reagent blank.

[6] = tested on: IgG crosslinked to circulating red blood cells; assay: RBC-IgG Assay in streptozotocin-induced diabetic rats; format: in vivo, rat; conditions: diabetic rats dosed orally at 10 mg/kg body weight; 19 days
Experimental: The test compounds are administered to the test animals either orally or intraperitoneally, and the blood samples are collected are tested at various times, e.g. 4, 7 or 19 days, after administration to assess efficacy.
Blood is collected from the rats in heparinized tubes and spun at 2000×g for 10 minutes, and the plasma carefully removed. Then, about 5 ml of PBS per ml blood is added, gently mixed, and then spun again. The supernatant is then removed by aspiration. The wash is then repeated two more times. Then, 0.2 to 0.3 ml of packed RBC is withdrawn from the bottom of the tube, using a pipette, and added to the PBS to make a 1 to 10 dilution. This dilution is then further diluted 1 to 25 and 1 to 50 in PBS. • B. Assay Set Up. • 1. Warm Superbloc to 37° C. • 2. Take a plate of Multiscreen-HA, 0.45 u. Cellulose ester membrane-sealed 96 well plate (Millipore MARAS45). • 3. Wet the wells with 100 μl of PBS. • 4. Add 300 μl of superblock to each well and incubate at 37° C. for one hour. • 5. Place the plate on the Millititer Vacuum holder, turn on the vacuum and press the plate down once for tight hold. The liquids in the wells will be suctioned off. Wash the wells with 300 μl of PBS-Tween 0.05%. • 6. Turn off the vacuum and add 100 μl of PBS to each well. • 7. […] Read OD of the solution collected in the Coming plate on Dynatech Plate reader Sample filter 1 and Ref. filter 4. • 17. […]

[7] = tested on: cross-linking of glycated bovine serum albumin (AGE-BSA) to rat tail tendon collagen; assay: Cross-linking Inhibition Assay; conditions: at 10 mM
Experimental: The following method was used to evaluate the ability of the compounds of the present invention to inhibit the cross-linking of glycated bovine serum albumin (AGE-BSA) to the rat tail tendon collagen-coated 96-well plate.
The blocking solution was removed from the wells by, washing the plate twice with PBS-'Tween 20 solution (0.05% Tween 20) using a NUNq-multiprobe or Dynatech ELISA-plate washer. Cross-linking of AGE-BSA (1 to 10 mg per well depending on the batch of AGE-BSA) to rat tail tendon collagen coated plate was performed with and without the testing ‘compound dissolved in PBS buffer at pH 7.4 at the desired concentrations by the, addition of 50 μl each of the AGE-BSA diluted in PBS or in the solution of test compound at 37° C. for 4 hours. Unbrowned BSA in PBS buffer with or without testing compound were added to the separate wells as the blanks. The un-cross-linked AGE-BSA was then removed by washing the wells three times with PBS-Tween buffer. The amount of AGE-BSA cross-linked to the tail tendon collagen-coated plate was then quantitated using a polyclonal antibody raised against AGE-RNase. After a one-hour incubation period, AGE antibody was removed by washing 4 times with PBS-Tween.
The bound AGE antibody was then detected with the addition of horseradish peroxidase-conjugated secondary antibody—goat anti-rabbit immunoglobulin and incubation for 30 minutes. […] The reaction was allowed for an additional 15 minutes and the absorbance was read at 410 nm in a Dynatech plate reader.

| SMILES | aortic wall protein cross-linking [1] | immunoglobulin trapping in the kidney [2] | increased glomerular basement membrane thickness [3] | diabetes-induced changes in the deformability of red blood cells [4] | Breaking Anti-AGE ([5]; anti-AGE antibody) [%] | Breaking Anti-BSA ([5]; anti-BSA antibody) [%] | Percent Inhibition (RBC-IgG) [6] | Relative Cross-link Inhibition (at 10 mM) [7] [%] |
| --- | --- | --- | --- | --- | --- | --- | --- | --- |
| N=C(N)NN [aminoguanidine] | diminishes | reduction | prevented | prevent |  |  |  |  |
| Cc1c(CCO)sc[n+]1CC(=O)c1ccc2ccccc2c1.[Br-] [3-(2-(2′-naphthyl)-2-oxoethyl]-4-methyl-5-(2′-hydroxyethyl)-thiazolium bromide] |  |  |  |  | 52 | 61 | 40 ± 24 @ 19 days % | 61 |
